Laboratory results: US6380218B1, “Nicotinamide derivatives” (Pfizer Inc, priority 1997, dated 2002)
Structures can show the parent of a compound that is named as a salt.

SMILES	melting point
O=C(O)c1cc2cc(CNC(=O)c3cccnc3Oc3ccc(F)cc3)ccc2[nH]1 [Example 165, 5-({[2-(4-Fluoro-phenoxy)-pyridine-3-carbonyl]-amino}-methyl)-1H-indole-2-carboxylic acid]	236 to 238 °C
CC(C)(O)c1ccc(CNC(=O)c2cccnc2Oc2cccc(F)c2)cc1 [Example 202, 2-(3-Fluoro-phenoxy)-N-[4-(1-hydroxy-1-methyl-ethyl)-benzyl]-nicotinamide]	106 to 108 °C
Cc1noc2ccc(Oc3ncccc3C(=O)NCc3ccc(C(C)(C)O)cc3)cc12 [Example 316, N-(4-(1-Hydroxy-1-methyl-ethyl)-benzyl)-2-(3-methyl-benzo(d)-isoxazol-5-yloxy)-nicotinamide]	128 to 130 °C
CC(=O)c1cc(Cl)cc(Oc2ncccc2C(=O)NCc2ccc(C(C)(C)O)cc2)c1 [Example 305, 2-(3-Acetyl-5-chloro-phenoxy)-N-(4-(1-Hydroxy-1-methyl-ethyl)-benzyl)-nicotinamide]	110 to 112 °C
CC(C)(O)c1cc(Cl)c(CNC(=O)c2cccnc2Oc2ccc(F)cc2)s1 [Example 84, N-[3-Chloro-5-(1-hydroxy-1-methyl-ethyl)-thiophen-2-ylmethyl]-2-(4-fluoro-phenoxy)-nicotinamide]	85 to 87 °C
O=C(NCc1c(F)cccc1Cl)c1cccnc1Oc1ccc(F)cc1 [Example 5, N-(2-Chloro-6-fluoro-benzyl)-2-(4-fluoro-phenoxy)-nicotinamide]	115 to 118 °C
O=C(NCc1ccc2c(c1)OCCC2O)c1cccnc1Oc1cccnc1 (stereo not drawn) [Example 41, N-(4-Hydroxy-chroman-7-ylmethyl)-2-(pyridin-3-yloxy)-nicotinamide]	134 to 136 °C
CC(=O)c1ccc(CC(=O)Nc2cccnc2Oc2cccnc2)cc1 [Example 186, 2-(4-Acetyl-phenyl)-N-[2-(pyridin-3-yloxy)-pyridin-3-yl]-acetamide]	110 to 112 °C
CC(C)(C)C(=O)Oc1ccc(CNC(=O)c2cccnc2Oc2ccc(F)cc2)cc1 [Example 130, 2,2-Dimethyl-propionic acid 4-({[2-(4-fluoro-phenoxy)-pyridine-3-carbonyl]-amino}-methyl)-phenyl ester]	91 to 93 °C
CC(C)(O)c1ccc(CNC(=O)c2cccnc2Oc2ccc(F)cc2)c(F)c1 [Example 328, N-[2-Fluoro-4-(1-hydroxy-1-methyl-ethyl)-benzyl]-2-(4-fluoro-phenoxy)-nicotinamide]	93 to 94 °C
O=C(NCc1sccc1Cl)c1cccnc1Oc1ccc(F)cc1 [Example 69, N-(3-Chloro-thiophen-2-ylmethyl)-2-(4-fluoro-phenoxy)-nicotinamide]	134 to 136 °C
CC(O)C1CCC(CNC(=O)c2cccnc2Oc2ccc(F)c(C#N)c2)CC1 (single isomer, unassigned; (-)) [Example 320, (−)-2-(3-Cyano-4-fluoro-phenoxy)-N-[4-(1-hydroxy-ethyl)-cyclohexylmethyl]-nicotinamide]	134 to 135 °C
CC(=O)C1CCC(CNC(=O)c2cccnc2Oc2ccc(F)cc2)CC1 (stereo not drawn) [Example 229, N-(4-Acetyl-cyclohexylmethyl)-2-(4-fluoro-phenoxy)-nicotinamide]	110 to 111 °C
COc1cccc(Oc2ncccc2C(=O)NCc2ccccc2Cl)c1 [Example 283, N-(2-Chloro-benzyl)-2-(3-methoxy-phenoxy)-nicotinamide]	71 to 74 °C
O=C(NCc1ccc([N+](=O)[O-])cc1)c1cccnc1Oc1ccc(F)cc1 [Example 72, 2-(4-Fluoro-phenoxy)-N-(4-nitro-benzyl)-nicotinamide]	155 to 157 °C
C[C@H](NC(=O)c1cccnc1Oc1cccnc1)c1cccs1 (as salt: HCl) [Example 46, (S)(+)-2-(Pyridin-3-yloxy)-N-(1-thiophen-2-yl-ethyl)-nicotinamide]	196 to 198 °C
CC(NC(=O)c1cccnc1Oc1ccc(F)cc1)c1ccc(Cl)s1 (stereo not drawn) [Example 8, N-[1-(5-Chloro-thiophen-2-yl)-ethyl]-2-(4-fluoro-phenoxy)-nicotinamide]	87 to 89 °C
Cc1ccsc1CNC(=O)c1cccnc1Oc1cncc(Cl)c1 [Example 54, 2-(5-Chloro-pyridin-3-yloxy)-N-(3-methyl-thiophen-2-ylmethyl)-nicotinamide]	115 to 117 °C
Cc1ccc(CNC(=O)c2cccnc2Oc2cccnc2)o1 [Example 19, N-(5-Methyl-furan-2-ylmethyl)-2-(pyridin-3-yloxy)-nicotinamide]	65 to 67 °C
CC(NC(=O)c1cccnc1Oc1ccc(F)cc1)c1ccc(Cl)s1 (single isomer, unassigned; (+)) [Example 141, (+)-N-[1-(5-Chloro-thiophen-2-yl)-ethyl]-2-(4-fluoro-phenoxy)-nicotinamide]	78 to 80 °C
CC(C)(O)c1ccc(CC(=O)Nc2cccnc2Oc2cccnc2)cc1 [Example 211, 2-[4-(1-Hydroxy-1-methyl-ethyl)-phenyl]-N-[2-(pyridin-3-yloxy)-pyridin-3-yl]-acetamide]	122 to 124 °C
O=C(NCc1ccccc1Cl)c1cccnc1Oc1ccc(F)cc1 [Example 9, N-(2-Chloro-benzyl)-2-(4-fluoro-phenoxy)-nicotinamide]	118 to 120 °C
CC(NC(=O)c1cccnc1Oc1cccnc1)c1ccc(Cl)s1 (stereo not drawn) [Example 14, N-[1-(5-Chloro-thiophen-2-yl)-ethyl]-2-(pyridin-3-yloxy)-nicotinamide]	74 to 76 °C

SMILES	melting point
O=C(c1cc2ccccc2[nH]1)c1cccnc1Oc1ccc(F)cc1 [Example 269, [2-(4-Fluoro-phenoxy)-pyridin-3-yl]-(1H-indol-2-yl)-methanone]	169 to 170 °C
O=C(NCc1cc(Cl)cs1)c1cccnc1Oc1cccnc1 [Example 21, N-(4-Chloro-thiophen-2-ylmethyl)-2-(pyridin-3-yloxy)-nicotinamide]	118 to 120 °C
O=C(COc1ccccc1Cl)c1cccnc1Oc1ccc(F)cc1 [Example 266, 2-(2-Chloro-phenoxy)-1-[2-(4-fluoro-phenoxy)-pyridin-3-yl]-ethanone]	92 to 93 °C
CC(=O)c1cccc(Oc2ncccc2C(=O)NCc2ccc(C(C)O)cc2)c1 (stereo not drawn) [Example 223, 2-(3-Acetyl-phenoxy)-N-[4-(1-hydroxy-ethyl)-benzyl]-nicotinamide]	105 to 107 °C
Cc1ccc(CNC(=O)c2cccnc2Oc2cccnc2)s1 [Example 18, N-(5-Methyl-thiophen-2-ylmethyl)-2-(pyridin-3-yloxy)-nicotinamide]	111 to 113 °C
O=C(NCc1ccccc1Cl)c1cccnc1OCc1cccnc1 [Example 246, N-(2-Chloro-benzyl)-2-(pyridin-3-ylmethoxy)-nicotinamide]	91 to 93 °C
N#Cc1cccc(Oc2ncccc2C(=O)NCc2ccc3c(c2)CC(=O)N3)c1 [Example 112, 2-(3-Cyano-phenoxy)-N-(2-oxo-2,3-dihydro-1H-indol-5-ylmethyl)-nicotinamide]	197 to 199 °C
CC(C)(O)c1ccc(CNC(=O)c2cccnc2Oc2ccc(F)cc2)cc1	106 to 108 °C
CC(=O)c1ccc(CNC(=O)c2cccnc2Oc2ccc(F)cc2)cc1 [Example 285, N-[4-Acetyl-benzyl)-2-(4-fluoro-phenoxy)-nicotinamide]	106 to 108 °C
O=C(NCC1CCCCC1)c1cccnc1Oc1cncc(Cl)c1 [Example 58, 2-(5-Chloro-pyridin-3-yloxy)-N-cyclohexylmethyl-nicotinamide]	95 to 97 °C
CN(CC(=O)c1cccnc1Oc1ccc(F)cc1)c1ccccc1 [Example 270, 1-[2-(4-Fluoro-phenoxy)-pyridin-3-yl]-2-(methyl-phenyl-amino)-ethanone]	126 to 128 °C
CC(C)(O)c1ccc(CNC(=O)c2cccnc2Oc2cccc(Cl)c2)cc1 [Example 187, 2-(3-Chloro-phenoxy)-N-[4-(1-hydroxy-1-methyl-ethyl)-benzyl]-nicotinamide]	57 to 59 °C
CC(C)(O)c1cc(Cl)c(CNC(=O)c2cccnc2Oc2cncc(Cl)c2)s1 [Example 60, N-[3-Chloro-5-(1-hydroxy-1-methyl-ethyl)-thiophen-2-ylmethyl]-2-(5-chloro-pyridin-3-yloxy)-nicotinamide]	72 to 74 °C
N#Cc1cccc(Oc2ncccc2C(=O)NCc2ccccc2Cl)c1 [Example 110, N-(2-Chloro-benzyl)-2-(3-cyano-phenoxy)-nicotinamide]	135 to 137 °C
Cc1noc2ccc(Oc3ncccc3C(=O)NCC3CCC(C(C)(C)O)CC3)cc12 (stereo not drawn) [Example 315, N-(4-(1-Hydroxy-1-methyl-ethyl)-cyclohexylmethyl)-2-(3-methyl-benzo(d)-isoxazol-5-yloxy)-nicotinamide]	135 to 137 °C
COc1ccc(CCC(=O)c2cccnc2Oc2ccc(F)cc2)cc1 [Example 249, 1-[2-(4-Fluorophenoxy)-3-pyridinyl]-3-(4-methoxyphenyl)-1-propanone]	73 to 74 °C
O=C(NCc1ccc(Cl)o1)c1cccnc1Oc1ccc(F)cc1 [Example 63, N-(5-Chloro-furan-2-ylmethyl)-2-(4-fluoro-phenoxy)-nicotinamide]	116 to 118 °C
CC(=O)c1cccc(Oc2ncccc2NC(=O)Cc2ccc(C(C)(C)O)cc2)c1 [Example 213, N-[2-(3-Acetyl-phenoxy)-pyridin-3-yl]-2-[4-(1-hydroxy-1-methyl-ethyl)-phenyl]-acetamide]	85 to 87 °C
Cc1ccc(CNC(=O)c2cccnc2Oc2cccnc2)cc1 [Example 13, N-(4-Methyl-benzyl)-2-(pyridin-3-yloxy)-nicotinamide]	91 to 93 °C
O=C(NCc1cc2ccccc2s1)c1cccnc1Oc1cccnc1 [Example 22, N-Benzo[b]thiophen-2-ylmethyl-2-(pyridin-3-yloxy)-nicotinamide]	93 to 95 °C
O=C(NCc1ccccc1Cl)c1cccnc1OCc1ccc(F)cc1 [Example 70, N-(2-Chloro-benzyl)-2-(4-fluoro-benzyloxy)-nicotinamide]	64 to 66 °C
O=C(NCc1ccncc1)c1cccnc1Oc1cccnc1 [Example 208, N-Pyridin4-ylmethyl-2-(pyridin-3-yloxy)-nicotinamide]	142 to 144 °C
